How the values were obtained:
[1] = target: Phosphorylase b kinase gamma catalytic chain, skeletal muscle/heart isoform (Homo sapiens, UniProt Q16816)
[2] = target: Ribosomal protein S6 kinase alpha-3 (Homo sapiens, UniProt P51812)
[3] = target: Calcium/calmodulin-dependent protein kinase type 1 (Homo sapiens, UniProt Q14012)
[4] = target: LIM domain kinase 1 (Homo sapiens, UniProt P53667)
[5] = target: Cyclin-dependent kinase 5 (Homo sapiens, UniProt Q00535)
[6] = target: Tyrosine-protein kinase BTK (Homo sapiens, UniProt Q06187)
[7] = target: Serine/threonine-protein kinase Nek6 (Homo sapiens, UniProt Q9HC98)
[8] = target: Insulin receptor (Homo sapiens, UniProt P06213)
[9] = target: Mitogen-activated protein kinase 11 (Homo sapiens, UniProt Q15759)
[10] = target: Focal adhesion kinase 1 (Homo sapiens, UniProt Q05397)
[11] = target: Ephrin type-A receptor 2 (Homo sapiens, UniProt P29317)
[12] = target: Serine/threonine-protein kinase PAK 6 (Homo sapiens, UniProt Q9NQU5)
[13] = target: Dual specificity protein kinase CLK3 (Homo sapiens, UniProt P49761)
[14] = target: Calcium/calmodulin-dependent protein kinase type II subunit alpha (Homo sapiens, UniProt Q9UQM7)
[15] = target: T1, Serine/threonine-protein kinase 17B (Homo sapiens, UniProt O94768)
T1 sequence (O94768 whole entry): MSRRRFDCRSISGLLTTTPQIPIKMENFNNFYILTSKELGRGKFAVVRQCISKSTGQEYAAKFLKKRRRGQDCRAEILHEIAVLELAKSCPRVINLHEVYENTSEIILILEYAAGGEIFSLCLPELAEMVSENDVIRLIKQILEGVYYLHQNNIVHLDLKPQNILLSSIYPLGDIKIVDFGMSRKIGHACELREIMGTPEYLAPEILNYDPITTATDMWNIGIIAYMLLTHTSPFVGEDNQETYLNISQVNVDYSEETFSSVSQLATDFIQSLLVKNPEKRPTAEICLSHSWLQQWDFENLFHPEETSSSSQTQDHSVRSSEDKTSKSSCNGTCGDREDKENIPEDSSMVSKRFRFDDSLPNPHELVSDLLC

[16] = target: Death-associated protein kinase 3 (Homo sapiens, UniProt O43293)
[17] = target: T2, Ephrin type-B receptor 4 (Homo sapiens, UniProt P54760)
T2 sequence (P54760 whole entry): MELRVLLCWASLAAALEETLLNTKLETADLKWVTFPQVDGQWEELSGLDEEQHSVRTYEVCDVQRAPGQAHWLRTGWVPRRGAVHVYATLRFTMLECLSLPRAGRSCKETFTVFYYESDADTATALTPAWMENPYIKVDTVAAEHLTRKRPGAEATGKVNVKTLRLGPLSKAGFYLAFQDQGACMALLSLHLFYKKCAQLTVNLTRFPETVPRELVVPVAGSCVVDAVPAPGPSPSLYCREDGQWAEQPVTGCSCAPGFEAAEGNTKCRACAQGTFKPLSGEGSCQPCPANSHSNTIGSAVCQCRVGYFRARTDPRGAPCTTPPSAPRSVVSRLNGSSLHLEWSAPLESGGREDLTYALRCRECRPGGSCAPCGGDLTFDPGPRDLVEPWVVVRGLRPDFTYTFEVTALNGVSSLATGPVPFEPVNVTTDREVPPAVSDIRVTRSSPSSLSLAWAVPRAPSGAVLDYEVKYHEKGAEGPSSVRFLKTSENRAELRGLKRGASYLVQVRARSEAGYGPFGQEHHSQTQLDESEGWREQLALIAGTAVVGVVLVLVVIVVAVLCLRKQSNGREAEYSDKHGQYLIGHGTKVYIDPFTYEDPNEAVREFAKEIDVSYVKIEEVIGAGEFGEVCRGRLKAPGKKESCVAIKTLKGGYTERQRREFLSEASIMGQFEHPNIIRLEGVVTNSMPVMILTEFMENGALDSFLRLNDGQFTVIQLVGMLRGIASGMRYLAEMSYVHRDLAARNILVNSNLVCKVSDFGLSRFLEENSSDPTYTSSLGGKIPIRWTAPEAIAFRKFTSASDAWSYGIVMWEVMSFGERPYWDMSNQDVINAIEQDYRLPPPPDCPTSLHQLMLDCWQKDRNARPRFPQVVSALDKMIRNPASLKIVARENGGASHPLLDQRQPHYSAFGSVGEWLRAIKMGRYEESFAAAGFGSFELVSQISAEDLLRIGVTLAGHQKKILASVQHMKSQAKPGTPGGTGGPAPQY

[18] = target: BMP-2-inducible protein kinase (Homo sapiens, UniProt Q9NSY1)

Measured: Kd

Sequence of Ribosomal protein S6 kinase alpha-3 (P51812 whole entry): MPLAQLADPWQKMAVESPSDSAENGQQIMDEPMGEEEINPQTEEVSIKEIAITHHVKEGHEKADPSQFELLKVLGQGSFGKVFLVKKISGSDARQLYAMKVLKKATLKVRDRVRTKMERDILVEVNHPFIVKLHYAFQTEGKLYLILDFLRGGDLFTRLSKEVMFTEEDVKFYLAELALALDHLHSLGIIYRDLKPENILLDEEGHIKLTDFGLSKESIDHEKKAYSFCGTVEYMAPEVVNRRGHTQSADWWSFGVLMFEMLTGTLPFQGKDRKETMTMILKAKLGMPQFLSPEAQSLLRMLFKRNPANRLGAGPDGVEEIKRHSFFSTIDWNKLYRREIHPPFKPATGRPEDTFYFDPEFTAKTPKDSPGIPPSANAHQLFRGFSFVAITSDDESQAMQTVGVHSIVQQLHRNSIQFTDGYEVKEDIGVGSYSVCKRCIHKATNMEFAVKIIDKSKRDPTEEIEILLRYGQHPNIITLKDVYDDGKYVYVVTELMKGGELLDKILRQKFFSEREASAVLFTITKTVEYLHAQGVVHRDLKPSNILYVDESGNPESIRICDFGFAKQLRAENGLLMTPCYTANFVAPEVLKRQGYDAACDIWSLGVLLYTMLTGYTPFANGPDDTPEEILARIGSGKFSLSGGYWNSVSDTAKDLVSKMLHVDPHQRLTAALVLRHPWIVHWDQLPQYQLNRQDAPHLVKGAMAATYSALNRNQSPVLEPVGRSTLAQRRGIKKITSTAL
Sequence of Serine/threonine-protein kinase PAK 6 (Q9NQU5 whole entry): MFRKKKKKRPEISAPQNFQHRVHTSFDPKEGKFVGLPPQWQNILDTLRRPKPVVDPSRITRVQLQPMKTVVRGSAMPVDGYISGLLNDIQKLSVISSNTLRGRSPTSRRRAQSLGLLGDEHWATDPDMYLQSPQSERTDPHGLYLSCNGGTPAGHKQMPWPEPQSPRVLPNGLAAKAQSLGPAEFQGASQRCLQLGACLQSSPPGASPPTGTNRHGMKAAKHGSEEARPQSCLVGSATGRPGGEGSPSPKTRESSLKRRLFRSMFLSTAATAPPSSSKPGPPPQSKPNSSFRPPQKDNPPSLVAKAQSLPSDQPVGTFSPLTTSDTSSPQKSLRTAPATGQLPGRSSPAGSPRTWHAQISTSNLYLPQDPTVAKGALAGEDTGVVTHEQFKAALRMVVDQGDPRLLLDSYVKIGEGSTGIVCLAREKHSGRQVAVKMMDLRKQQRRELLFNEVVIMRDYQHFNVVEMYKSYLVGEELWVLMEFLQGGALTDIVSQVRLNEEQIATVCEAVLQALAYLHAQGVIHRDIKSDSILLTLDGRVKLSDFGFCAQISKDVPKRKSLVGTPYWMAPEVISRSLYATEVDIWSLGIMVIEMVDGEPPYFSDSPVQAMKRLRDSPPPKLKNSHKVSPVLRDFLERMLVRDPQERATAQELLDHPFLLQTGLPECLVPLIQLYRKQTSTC
Sequence of BMP-2-inducible protein kinase (Q9NSY1 whole entry): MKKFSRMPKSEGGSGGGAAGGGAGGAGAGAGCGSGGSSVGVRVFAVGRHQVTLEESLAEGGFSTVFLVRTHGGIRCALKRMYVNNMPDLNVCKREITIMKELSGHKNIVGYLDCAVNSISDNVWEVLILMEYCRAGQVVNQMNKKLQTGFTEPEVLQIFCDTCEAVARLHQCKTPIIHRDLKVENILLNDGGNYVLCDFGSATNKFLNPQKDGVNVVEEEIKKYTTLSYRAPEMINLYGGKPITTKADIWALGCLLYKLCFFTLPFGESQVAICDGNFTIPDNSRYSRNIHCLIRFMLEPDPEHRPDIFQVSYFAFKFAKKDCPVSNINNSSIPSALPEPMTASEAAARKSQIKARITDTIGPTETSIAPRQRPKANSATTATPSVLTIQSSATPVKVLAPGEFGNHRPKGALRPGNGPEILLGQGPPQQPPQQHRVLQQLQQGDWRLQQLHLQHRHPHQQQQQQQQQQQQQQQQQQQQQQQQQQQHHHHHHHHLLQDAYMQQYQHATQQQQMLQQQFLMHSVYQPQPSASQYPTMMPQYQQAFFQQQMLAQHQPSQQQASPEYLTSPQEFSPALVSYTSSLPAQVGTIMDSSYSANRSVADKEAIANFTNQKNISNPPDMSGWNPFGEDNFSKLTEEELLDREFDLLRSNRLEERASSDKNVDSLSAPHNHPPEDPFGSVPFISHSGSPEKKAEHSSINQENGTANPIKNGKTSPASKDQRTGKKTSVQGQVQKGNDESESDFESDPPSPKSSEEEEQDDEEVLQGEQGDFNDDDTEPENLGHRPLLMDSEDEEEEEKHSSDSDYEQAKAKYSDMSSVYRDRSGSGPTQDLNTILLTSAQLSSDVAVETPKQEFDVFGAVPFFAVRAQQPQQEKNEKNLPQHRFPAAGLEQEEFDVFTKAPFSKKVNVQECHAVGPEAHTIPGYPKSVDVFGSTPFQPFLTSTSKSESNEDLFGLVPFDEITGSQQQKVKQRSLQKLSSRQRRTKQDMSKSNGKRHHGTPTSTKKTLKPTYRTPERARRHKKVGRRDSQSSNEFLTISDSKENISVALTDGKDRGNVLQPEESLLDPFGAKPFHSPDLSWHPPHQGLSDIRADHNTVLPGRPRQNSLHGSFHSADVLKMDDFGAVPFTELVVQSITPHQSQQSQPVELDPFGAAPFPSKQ
Sequence of Cyclin-dependent kinase 5 (Q00535 whole entry): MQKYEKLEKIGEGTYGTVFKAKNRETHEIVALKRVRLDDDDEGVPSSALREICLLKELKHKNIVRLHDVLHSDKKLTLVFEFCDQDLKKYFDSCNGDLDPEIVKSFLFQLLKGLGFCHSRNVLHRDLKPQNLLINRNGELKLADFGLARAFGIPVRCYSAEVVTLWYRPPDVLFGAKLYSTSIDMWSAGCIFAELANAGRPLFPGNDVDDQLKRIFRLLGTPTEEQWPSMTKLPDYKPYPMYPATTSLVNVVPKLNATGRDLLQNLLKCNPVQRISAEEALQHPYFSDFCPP
Sequence of Phosphorylase b kinase gamma catalytic chain, skeletal muscle/heart isoform (Q16816 whole entry, canonical isoform): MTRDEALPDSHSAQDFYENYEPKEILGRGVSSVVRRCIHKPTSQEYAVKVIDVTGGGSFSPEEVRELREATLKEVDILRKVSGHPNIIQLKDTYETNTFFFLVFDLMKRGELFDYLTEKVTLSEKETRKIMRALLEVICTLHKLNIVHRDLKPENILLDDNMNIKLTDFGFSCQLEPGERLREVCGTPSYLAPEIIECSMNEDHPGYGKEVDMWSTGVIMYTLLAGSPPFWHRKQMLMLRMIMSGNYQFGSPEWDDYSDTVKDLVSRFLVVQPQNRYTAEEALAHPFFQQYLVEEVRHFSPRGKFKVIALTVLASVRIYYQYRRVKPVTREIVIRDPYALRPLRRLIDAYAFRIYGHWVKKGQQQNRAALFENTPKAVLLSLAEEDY
Sequence of Mitogen-activated protein kinase 11 (Q15759 whole entry): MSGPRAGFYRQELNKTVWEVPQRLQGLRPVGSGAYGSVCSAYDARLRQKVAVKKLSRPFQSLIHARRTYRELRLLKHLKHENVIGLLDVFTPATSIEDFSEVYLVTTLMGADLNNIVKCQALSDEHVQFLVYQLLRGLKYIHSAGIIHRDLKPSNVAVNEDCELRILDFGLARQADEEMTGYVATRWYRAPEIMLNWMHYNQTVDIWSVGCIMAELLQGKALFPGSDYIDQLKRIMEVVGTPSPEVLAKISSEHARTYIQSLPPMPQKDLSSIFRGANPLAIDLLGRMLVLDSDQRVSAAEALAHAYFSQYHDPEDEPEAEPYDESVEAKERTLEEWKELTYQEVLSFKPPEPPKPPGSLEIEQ
Sequence of LIM domain kinase 1 (P53667 whole entry, the tested form may be a part): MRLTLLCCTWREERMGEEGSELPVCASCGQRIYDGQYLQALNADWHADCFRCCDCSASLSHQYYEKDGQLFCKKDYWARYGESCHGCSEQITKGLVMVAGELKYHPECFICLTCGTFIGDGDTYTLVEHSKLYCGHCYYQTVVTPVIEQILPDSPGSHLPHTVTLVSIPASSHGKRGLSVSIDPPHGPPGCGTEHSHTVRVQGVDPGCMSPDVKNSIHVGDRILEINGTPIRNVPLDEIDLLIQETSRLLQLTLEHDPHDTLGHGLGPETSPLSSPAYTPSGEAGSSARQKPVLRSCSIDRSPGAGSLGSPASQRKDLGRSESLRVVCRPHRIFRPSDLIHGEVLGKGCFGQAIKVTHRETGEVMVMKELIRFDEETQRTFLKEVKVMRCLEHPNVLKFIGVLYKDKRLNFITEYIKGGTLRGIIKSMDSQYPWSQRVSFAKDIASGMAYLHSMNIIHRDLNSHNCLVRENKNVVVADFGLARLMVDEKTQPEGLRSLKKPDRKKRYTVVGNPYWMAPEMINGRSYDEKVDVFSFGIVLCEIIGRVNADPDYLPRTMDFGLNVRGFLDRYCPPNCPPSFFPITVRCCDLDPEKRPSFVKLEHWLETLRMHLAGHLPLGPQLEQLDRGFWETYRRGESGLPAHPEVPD
Sequence of Dual specificity protein kinase CLK3 (P49761 whole entry): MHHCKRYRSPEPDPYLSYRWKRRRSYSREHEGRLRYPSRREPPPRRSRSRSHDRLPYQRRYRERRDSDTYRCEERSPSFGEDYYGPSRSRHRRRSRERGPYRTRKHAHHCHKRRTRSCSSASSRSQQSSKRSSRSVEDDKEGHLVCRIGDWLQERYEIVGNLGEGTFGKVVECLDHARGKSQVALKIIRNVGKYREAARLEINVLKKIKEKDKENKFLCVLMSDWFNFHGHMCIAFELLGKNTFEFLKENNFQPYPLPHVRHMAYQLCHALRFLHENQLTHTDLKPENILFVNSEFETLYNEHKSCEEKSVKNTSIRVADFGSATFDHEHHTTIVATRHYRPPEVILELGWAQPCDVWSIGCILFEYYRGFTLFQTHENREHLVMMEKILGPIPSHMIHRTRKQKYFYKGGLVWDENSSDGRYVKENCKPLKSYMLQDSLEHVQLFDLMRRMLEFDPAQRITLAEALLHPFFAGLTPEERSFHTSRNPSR

C#Cc1cccc(Nc2ncnc3cc(OCCOC)c(OCCOC)cc23)c1 [ERLOTINIB]
not listed: [18]
Not Active: all other assays above

Cc1ccc(NC(=O)c2ccc(CN3CCN(C)CC3)cc2)cc1Nc1nccc(-c2cccnc2)n1 [IMATINIB]
not listed: [13]
Not Active: all other assays above

O=c1ncn2nc(Sc3ccc(F)cc3F)ccc2c1-c1c(Cl)cccc1Cl [NEFLAMAPIMOD]
not listed: [9] | [11] | [17]
Not Active: all other assays above

CCOc1cc2ncc(C#N)c(Nc3ccc(F)c(Cl)c3)c2cc1NC(=O)/C=C/CN(C)C [PELITINIB]
Not Active: [2] | [3] | [4] | [5] | [7] | [8] | [9] | [11] | [12] | [14]

Oc1ccc(-c2nc(-c3ccc(F)cc3)c(-c3ccncc3)[nH]2)cc1 [SB-202190]
not listed: [9]
Not Active: all other assays above

C[S+]([O-])c1ccc(-c2nc(-c3ccc(F)cc3)c(-c3ccncc3)[nH]2)cc1 (centres undefined) [SB-203580]
not listed: [9]
Not Active: all other assays above

Oc1c2ccccc2c2c3c(cccc13)N=N2 [SP-600125]
not listed: [3] | [5] | [16] | [18]
Not Active: all other assays above

COc1cc2c(N3CCN(C(=O)Nc4ccc(OC(C)C)cc4)CC3)ncnc2cc1OCCCN1CCCCC1 [TANDUTINIB]
not listed: [13]
Not Active: all other assays above
